Paper PMC3242434 (Bioorganic & medicinal chemistry letters, 2011)

Key:
[1] = tested on: Hsp90; assay: Western blot analyses of Hsp90 client protein degradation in MCF-7 cells; format: cell-based
[2] = tested on: MCF7 breast cancer cell-line; assay: Anti-proliferative activity against MCF7 breast cancer cell-line; format: cell-based; conditions: Homo sapiens, MCF7, read-out: IC50 against MCF-7

IC50 [2] | Compound | Hsp90 client protein degradation [1] | Hsp90 induction (heat shock response) [1]
– | COc1ccc(Cc2ccc3cc(NC(=O)c4ccc(OC(C)=O)c(CC=C(C)C)c4)c(=O)oc3c2C)cc1 [Compound 43] | client protein degradation was observed | no Hsp90 induction was seen
~13 µM | COc1ccc(Cc2ccc3cc(NC(=O)c4ccc(O)c(CC=C(C)C)c4)c(=O)oc3c2C)cc1OC [Compound 48] | – | –
– | COc1ccc(Oc2ccc3cc(NC(=O)c4ccc(O)c(CC=C(C)C)c4)c(=O)oc3c2C)cc1 [Compound 14] | client protein degradation was observed | no Hsp90 induction was seen
